Key:
Rattus norvegicus [1] = assay: Ulcerogenic effect in Wistar rat assessed as gastric ulcer area at 13 mg/kg, po administered for 7 days by microscopy; format: toxicity, organism-based, Stomach; parameters: dose 13 mg/kg, route oral; details: in vivo, 168 h
[2] = Inhibition of 5-LOX in rabbit peripheral venous blood assessed as formation of […] after 30 mins by HPLC; format: tissue-based, Oryctolagus cuniculus
Rattus norvegicus [3] = assay: Antiinflammatory activity in Wistar rat assessed as inhibition of carrageenan-induced paw edema at 13 mg/kg, po administered 1 hr before carrageenan challenge measured at 6 hrs by plethysmometer; format: functional
Mus musculus [4] = assay: Analgesic activity in BALB/c mouse assessed as inhibition of acetic acid-induced writhing response for 15 mins at 26 mg/kg, po; format: functional; details: 0.25 h
Rattus norvegicus [5] = assay: Antiinflammatory activity in Wistar rat assessed as inhibition of carrageenan-induced paw edema at 13 mg/kg, po administered 1 hr before carrageenan challenge measured at 1 hr by plethysmometer; format: functional
Rattus norvegicus [6] = assay: Antiinflammatory activity in Wistar rat assessed as inhibition of carrageenan-induced paw edema at 1 mg/kg, po administered 1 hr before carrageenan challenge measured at 3 hrs by plethysmometer; format: functional
Oryctolagus cuniculus = species: Oryctolagus cuniculus; assay: Selectivity ratio, IC50 for COX-1in rabbit peripheral venous blood to IC50 for COX-2 in rabbit peripheral venous blood; format: tissue-based
[7] = target: T1, Prostaglandin G/H synthase 2 (Oryctolagus cuniculus, UniProt O02768); assay: Inhibition of COX-2 in rabbit peripheral venous blood assessed as formation of 12-hydroxyheptadecatrienoic acid after 24 hrs in by HPLC presence of calcium ionophore […] and lipopolysaccharide; format: tissue-based
T1 sequence (O02768 whole entry): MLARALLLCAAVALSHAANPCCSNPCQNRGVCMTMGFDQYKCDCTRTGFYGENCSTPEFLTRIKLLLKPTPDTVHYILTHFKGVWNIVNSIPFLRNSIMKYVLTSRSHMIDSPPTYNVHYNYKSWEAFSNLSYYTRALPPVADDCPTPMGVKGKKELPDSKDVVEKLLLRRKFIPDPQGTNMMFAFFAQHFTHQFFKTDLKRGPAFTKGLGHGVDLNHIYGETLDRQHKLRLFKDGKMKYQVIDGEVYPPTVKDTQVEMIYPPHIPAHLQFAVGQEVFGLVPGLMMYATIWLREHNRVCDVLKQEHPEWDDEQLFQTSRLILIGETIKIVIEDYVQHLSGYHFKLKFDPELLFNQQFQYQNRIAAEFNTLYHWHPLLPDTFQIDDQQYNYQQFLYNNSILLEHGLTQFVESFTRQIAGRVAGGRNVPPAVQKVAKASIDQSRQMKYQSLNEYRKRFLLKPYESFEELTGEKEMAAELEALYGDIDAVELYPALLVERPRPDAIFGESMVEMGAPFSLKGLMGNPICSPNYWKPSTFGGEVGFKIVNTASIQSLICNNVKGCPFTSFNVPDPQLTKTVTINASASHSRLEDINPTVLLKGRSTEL

[8] = target: T2, Prostaglandin G/H synthase 1 (Oryctolagus cuniculus, UniProt O97554); assay: Inhibition of COX-1 in rabbit peripheral venous blood assessed as formation of 12-hydroxyheptadecatrienoic acid after 24 hrs by HPLC in presence of calcium ionophore A23187
T2 sequence (O97554 whole entry): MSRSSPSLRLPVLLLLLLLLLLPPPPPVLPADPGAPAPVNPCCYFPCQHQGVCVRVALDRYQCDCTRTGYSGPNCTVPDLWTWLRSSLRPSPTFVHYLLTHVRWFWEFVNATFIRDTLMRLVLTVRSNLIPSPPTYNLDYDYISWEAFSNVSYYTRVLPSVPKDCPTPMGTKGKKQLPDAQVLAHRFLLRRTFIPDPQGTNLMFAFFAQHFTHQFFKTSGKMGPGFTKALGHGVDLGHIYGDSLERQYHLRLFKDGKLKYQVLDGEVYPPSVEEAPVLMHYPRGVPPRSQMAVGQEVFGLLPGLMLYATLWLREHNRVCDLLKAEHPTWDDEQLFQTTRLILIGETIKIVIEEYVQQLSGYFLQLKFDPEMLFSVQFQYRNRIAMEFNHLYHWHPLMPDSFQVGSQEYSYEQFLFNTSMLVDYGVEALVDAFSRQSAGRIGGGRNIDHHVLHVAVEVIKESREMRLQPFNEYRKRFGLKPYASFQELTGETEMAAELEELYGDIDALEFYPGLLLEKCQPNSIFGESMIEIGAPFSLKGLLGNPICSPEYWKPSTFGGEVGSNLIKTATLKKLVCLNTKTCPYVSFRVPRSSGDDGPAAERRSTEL

Rattus norvegicus [9] = assay: Antiinflammatory activity in Wistar rat assessed as inhibition of carrageenan-induced paw edema at 10.47 mg/kg, po administered 1 hr before carrageenan challenge measured at 6 hrs by plethysmometer; format: functional
Mus musculus [10] = assay: Analgesic activity in BALB/c mouse assessed as inhibition of acetic acid-induced writhing response for 15 mins at 20.94 mg/kg, po; format: functional; details: 0.25 h
Rattus norvegicus [11] = assay: Ulcerogenic effect in Wistar rat assessed as gastric ulcer area at 10.47 mg/kg, po administered for 7 days by microscopy; format: toxicity, organism-based, Stomach; parameters: dose 10.47 mg/kg, route oral; details: in vivo, 168 h
Rattus norvegicus [12] = assay: Antiinflammatory activity in Wistar rat assessed as inhibition of carrageenan-induced paw edema at 10.47 mg/kg, po administered 1 hr before carrageenan challenge measured at 3 hrs by plethysmometer; format: functional
Rattus norvegicus [13] = assay: Antiinflammatory activity in Wistar rat assessed as inhibition of carrageenan-induced paw edema at 10.47 mg/kg, po administered 1 hr before carrageenan challenge measured at 1 hr by plethysmometer; format: functional
Rattus norvegicus [14] = assay: Antiinflammatory activity in Wistar rat assessed as inhibition of carrageenan-induced paw edema at 10.38 mg/kg, po administered 1 hr before carrageenan challenge measured at 3 hrs by plethysmometer; format: functional
Rattus norvegicus [15] = assay: Antiinflammatory activity in Wistar rat assessed as inhibition of carrageenan-induced paw edema at 10.38 mg/kg, po administered 1 hr before carrageenan challenge measured at 1 hr by plethysmometer; format: functional
Rattus norvegicus [16] = assay: Antiinflammatory activity in Wistar rat assessed as inhibition of carrageenan-induced paw edema at 10.38 mg/kg, po administered 1 hr before carrageenan challenge measured at 6 hrs by plethysmometer; format: functional
Rattus norvegicus [17] = assay: Ulcerogenic effect in Wistar rat assessed as gastric ulcer area at 10.38 mg/kg, po administered for 7 days by microscopy; format: toxicity, organism-based, Stomach; parameters: dose 10.38 mg/kg, route oral; details: in vivo, 168 h
Mus musculus [18] = assay: Analgesic activity in BALB/c mouse assessed as inhibition of acetic acid-induced writhing response for 15 mins at 20.76 mg/kg, po; format: functional; details: 0.25 h
Rattus norvegicus [19] = assay: Antiinflammatory activity in Wistar rat assessed as inhibition of carrageenan-induced paw edema at 10.15 mg/kg, po administered 1 hr before carrageenan challenge measured at 1 hr by plethysmometer; format: functional
Rattus norvegicus [20] = assay: Ulcerogenic effect in Wistar rat assessed as gastric ulcer area at 10.15 mg/kg, po administered for 7 days by microscopy; format: toxicity, organism-based, Stomach; parameters: dose 10.15 mg/kg, route oral; details: in vivo, 168 h
Mus musculus [21] = assay: Analgesic activity in BALB/c mouse assessed as inhibition of acetic acid-induced writhing response for 15 mins at 20.30 mg/kg, po; format: functional; details: 0.25 h
Rattus norvegicus [22] = assay: Antiinflammatory activity in Wistar rat assessed as inhibition of carrageenan-induced paw edema at 10.15 mg/kg, po administered 1 hr before carrageenan challenge measured at 3 hrs by plethysmometer; format: functional
Rattus norvegicus [23] = assay: Antiinflammatory activity in Wistar rat assessed as inhibition of carrageenan-induced paw edema at 10.15 mg/kg, po administered 1 hr before carrageenan challenge measured at 6 hrs by plethysmometer; format: functional
Rattus norvegicus [24] = assay: Antiinflammatory activity in Wistar rat assessed as inhibition of carrageenan-induced paw edema at 10.12 mg/kg, po administered 1 hr before carrageenan challenge measured at 1 hr by plethysmometer; format: functional
Rattus norvegicus [25] = assay: Ulcerogenic effect in Wistar rat assessed as gastric ulcer area at 10.12 mg/kg, po administered for 7 days by microscopy; format: toxicity, organism-based, Stomach; parameters: dose 10.12 mg/kg, route oral; details: in vivo, 168 h
Rattus norvegicus [26] = assay: Antiinflammatory activity in Wistar rat assessed as inhibition of carrageenan-induced paw edema at 10.12 mg/kg, po administered 1 hr before carrageenan challenge measured at 3 hrs by plethysmometer; format: functional
Mus musculus [27] = assay: Analgesic activity in BALB/c mouse assessed as inhibition of acetic acid-induced writhing response for 15 mins at 20.24 mg/kg, po; format: functional; details: 0.25 h
Rattus norvegicus [28] = assay: Antiinflammatory activity in Wistar rat assessed as inhibition of carrageenan-induced paw edema at 10.12 mg/kg, po administered 1 hr before carrageenan challenge measured at 6 hrs by plethysmometer; format: functional

| SMILES | IC50 [2] [µM] | IC50 [7] [µM] | IC50 [8] [µM] | Ratio IC50 (Oryctolagus cuniculus) | also measured |
| --- | --- | --- | --- | --- | --- |
| CC(C)(C)c1cc(/C=C2\SC(=N)NC2=O)cc(C(C)(C)C)c1O.CS(=O)(=O)O [DARBUFELONE MESYLATE] | 0.61 | – | – | 342 | Activity (Rattus norvegicus [1]): 0.87 mm2; inhibition in vivo at 13 mg/kg (Rattus norvegicus [3]): 17.6%; inhibition in vivo at 26 mg/kg (Mus musculus [4]): 86.2%; inhibition in vivo at 13 mg/kg (Rattus norvegicus [5]): 19.1%; inhibition in vivo at 1 mg/kg (Rattus norvegicus [6]): 36.1% |
| NC(=O)N1C(=O)/C(=C(\O)c2cccs2)c2cc(Cl)ccc21 [TENIDAP] | 36.7 | – | 2.56 | – | inhibition in vivo at 10.38 mg/kg (Rattus norvegicus [14]): 38.9%; inhibition in vivo at 10.38 mg/kg (Rattus norvegicus [15]): 23.8%; inhibition in vivo at 10.38 mg/kg (Rattus norvegicus [16]): 19.6%; Activity (Rattus norvegicus [17]): 3.75 mm2; inhibition in vivo at 20.76 mg/kg (Mus musculus [18]): 70.4% |
| NS(=O)(=O)c1ccc(/C=C2/C(=O)Nc3ccc(Cl)cc32)cc1 | 3.37 | 3.31 | 0.16 | 0.05 | inhibition in vivo at 10.15 mg/kg (Rattus norvegicus [19]): 19.1%; Activity (Rattus norvegicus [20]): 0.19 mm2; inhibition in vivo at 20.3 mg/kg (Mus musculus [21]): 80.7%; inhibition in vivo at 10.15 mg/kg (Rattus norvegicus [22]): 33.3%; inhibition in vivo at 10.15 mg/kg (Rattus norvegicus [23]): 19.6% |
| NS(=O)(=O)c1ccc(/C=C2/C(=O)Nc3ccc(Br)cc32)cc1 | 10.6 | 20.9 | 24.6 | 1.18 | – |

Further lines, with some results ahead:

| IC50 [2] [µM] | IC50 [7] [µM] | IC50 [8] [µM] | SMILES | Ratio IC50 (Oryctolagus cuniculus) | also measured |
| --- | --- | --- | --- | --- | --- |
| 9.42 | > 50 | 8.99 | CS(=O)(=O)c1ccc(/C=C2/C(=O)Nc3ccc(F)cc32)cc1 | – | – |
| 3.06 | 3.72 | 0.14 | NS(=O)(=O)c1ccc(/C=C2/C(=O)Nc3ccc([N+](=O)[O-])cc32)cc1 | 0.04 | inhibition in vivo at 10.47 mg/kg (Rattus norvegicus [9]): 13.7%; inhibition in vivo at 20.94 mg/kg (Mus musculus [10]): 40.8%; Activity (Rattus norvegicus [11]): 0.12 mm2; inhibition in vivo at 10.47 mg/kg (Rattus norvegicus [12]): 22.2%; inhibition in vivo at 10.47 mg/kg (Rattus norvegicus [13]): 9.52% |
| > 50 | > 50 | > 50 | NS(=O)(=O)c1ccc(/C=C2/C(=O)Nc3cc(Cl)ccc32)cc1 | – | – |
| > 50 | 3.82 | > 50 | CS(=O)(=O)c1ccc(/C=C2/C(=O)Nc3ccc(Cl)cc32)cc1 | – | inhibition in vivo at 10.12 mg/kg (Rattus norvegicus [24]): 14.3%; Activity (Rattus norvegicus [25]): 0.88 mm2; inhibition in vivo at 10.12 mg/kg (Rattus norvegicus [26]): 15.7%; inhibition in vivo at 20.24 mg/kg (Mus musculus [27]): 63.3%; inhibition in vivo at 10.12 mg/kg (Rattus norvegicus [28]): 41.7% |

— ChEMBL document CHEMBL1287762, “Synthesis and biological evaluation of 3-[4-(amino/methylsulfonyl)phenyl]methylene-indolin-2-one derivatives as novel COX-1/2 and 5-LOX inhibitors” (Bioorg Med Chem Lett, 2010)
